Experimental data from patent US7754743B2, “Heteroarylcarbamoylbenzene derivatives” (Banyu Pharmaceutical Co., Ltd., priority 2003, dated 2010).
Like-named read-outs stand apart in the source and are kept apart here.

Target: T1, recombinant human liver GK (Homo sapiens, UniProt P35557)
T1 construct: made in house; host or cells: E. coli
T1 sequence (P35557 1-466 isoform P35557-2): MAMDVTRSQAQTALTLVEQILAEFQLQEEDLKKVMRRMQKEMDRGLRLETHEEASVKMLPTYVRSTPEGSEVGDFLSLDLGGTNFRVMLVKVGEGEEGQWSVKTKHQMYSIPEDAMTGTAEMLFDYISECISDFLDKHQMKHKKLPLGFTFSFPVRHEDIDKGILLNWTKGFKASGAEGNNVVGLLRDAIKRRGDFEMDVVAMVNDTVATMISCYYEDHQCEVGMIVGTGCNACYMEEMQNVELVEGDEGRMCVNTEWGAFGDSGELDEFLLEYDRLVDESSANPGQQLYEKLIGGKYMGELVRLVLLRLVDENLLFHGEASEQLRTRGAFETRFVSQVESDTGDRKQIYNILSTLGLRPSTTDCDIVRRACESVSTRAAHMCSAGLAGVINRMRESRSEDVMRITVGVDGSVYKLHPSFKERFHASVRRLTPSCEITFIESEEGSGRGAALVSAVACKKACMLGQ
Test: Glucokinase (GK) activation assay, G6PDH-coupled thio-NADH absorbance at 405 nm
Format: biochemical
Experimental: The glucokinase activity is the degree of activation of glucokinase, as determined not by direct measurement of glucose-6-phosphate, but by measurement of the amount of thio-NADH produced upon production of phosphogluconolactone from glucose-6-phosphate by the reporter enzyme glucose-6-phosphate dehydrogenase.
The recombinant human liver GK used in this assay was expressed in E. coli as FLAG fusion protein, and it was purified by […] M2 AFFINITY GEL (Sigma).
The assay was carried out using a flat-bottomed 96-well plate at 30° C. A 69 μl portion of assay buffer (25 mM Hepes Buffer: pH=7.2, 2 mM MgCl2, 1 mM ATP, 0.5 mM TNAD, 1 mM dithiothreitol) was dispensed, and either a DMSO solution of the compound or 1 μl of DMSO as a control was added. Next, 20 μl of an enzyme mixture (FLAG-GK, 20 U/ml G6PDH) precooled in ice bath was dispensed, and then 10 μl of 25 mM glucose was added as substrate and reaction was initiated (final glucose concentration=2.5 mM).
FLAG-GK was added to produce an absorbance increment of from 0.05 to 0.1 after 5 minutes in the presence of 1% DMSO.
The OD values were measured at each concentration of the evaluated compound, using the OD value of the DMSO control as 100%. The Emax (%) and EC50 (μM) values were calculated from the OD value at each concentration, and used as indices of the GK activating power of the compounds.

[1] = final glucose concentration 2.5 mM, 30° C.

Compound | Emax [%] | EC50 [1] [nM] | Emax (OD value of DMSO control as 100%, final glucose concentration 2.5 mM, 30° C., read-out: Emax(%)) [%]
Cc1csc(NC(=O)c2cc(Oc3ccc(S(C)(=O)=O)cc3)cc(OC(C)C)c2)n1 [Production Example 1, 5-isopropoxy-3-(4-methanesulfonylphenoxy)-N-(4-methylthiazol-2-yl)-benzamide] | 957 | 250 | –
COC(=O)NCc1ccc(Oc2cc(OC(C)C)cc(C(=O)Nc3nccs3)c2)cc1 [Production Example 59, 5-isopropoxy-3-(4-methoxycarbonylaminomethylphenoxy)-N-thiazol-2-yl-benzamide] | – | 530 | 936
